Data taken from US20180000085A1, “USE OF PICOLINAMIDE COMPOUNDS WITH FUNGICIDAL ACTIVITY” (DOW AGROSCIENCES LLC, priority 2014, published 2018).

Legend:
Format in all cases: in vivo
[1] = system: Cercospora beticola; test: Leaf spot of sugar beets (CERCBE) disease control; settings: 100 ppm; 1 Day Protectant; sugar beet
Description: All fungicides were evaluated using the aforementioned method for their activity vs. all target diseases, unless stated otherwise. Wheat leaf blotch and brown rust activity were also evaluated using track spray applications, in which case the fungicides were formulated as EC formulations, containing 0.1% Trycol 5941 in the spray solutions. Wheat plants (variety Yuma) were grown from seed in a greenhouse in 50% mineral soil/50% soil-less Metro mix until the first leaf was fully emerged, with 7-10 seedlings per pot. These plants were inoculated with an aqueous spore suspension of Zymoseptoria tritici either prior to or after fungicide treatments. After inoculation the plants were kept in 100% relative humidity (one day in a dark dew chamber followed by two to three days in a lighted dew chamber at 20° C.) to permit spores to germinate and infect the leaf. The plants were then transferred to a greenhouse set at 20° C. for disease to develop. When disease symptoms were fully expressed on the 1st leaves of untreated plants, infection levels were assessed on a scale of 0 to 100 percent disease severity. Percent disease control was calculated using the ratio of disease severity on treated plants relative to untreated plants. Example F: Evaluation of Fungicidal Activity: Leaf Spot of Sugar Beets (Cercospora beticola; Bayer Code CERCBE) Sugar beet plants (variety HH88) were grown in soil-less Metro mix and trimmed regularly to maintain a uniform plant size prior to test. Plants were inoculated with a spore suspension 24 hr after fungicide treatments. Inoculated plants were kept in a dew chamber at 22° C. for 48 hr then incubated in a greenhouse set at 24° C. under a clear plastic hood with bottom ventilation until disease symptoms were fully expressed. Fungicide formulation, application and disease assessment on the sprayed leaves followed the procedures as described in the Example A.

[2] = system: Rhyncosporium secalis; test: Barley scald (RHYNSE) disease control; settings: 100 ppm, 1 Day Protectant
Description: All fungicides were evaluated using the aforementioned method for their activity vs. all target diseases, unless stated otherwise. Wheat leaf blotch and brown rust activity were also evaluated using track spray applications, in which case the fungicides were formulated as EC formulations, containing 0.1% Trycol 5941 in the spray solutions. Wheat plants (variety Yuma) were grown from seed in a greenhouse in 50% mineral soil/50% soil-less Metro mix until the first leaf was fully emerged, with 7-10 seedlings per pot. These plants were inoculated with an aqueous spore suspension of Zymoseptoria tritici either prior to or after fungicide treatments. After inoculation the plants were kept in 100% relative humidity (one day in a dark dew chamber followed by two to three days in a lighted dew chamber at 20° C.) to permit spores to germinate and infect the leaf. The plants were then transferred to a greenhouse set at 20° C. for disease to develop. When disease symptoms were fully expressed on the 1st leaves of untreated plants, infection levels were assessed on a scale of 0 to 100 percent disease severity. Percent disease control was calculated using the ratio of disease severity on treated plants relative to untreated plants. Example H: Evaluation of Fungicidal Activity: Barley Scald (Rhyncosporium secalis; Bayer Code […]) Barley seedlings (variety Harrington) were propagated in soil-less Metro mix, with each pot having 8 to 12 plants, and used in the test when first leaf was fully emerged. Test plants were inoculated by an aqueous spore suspension of Rhyncosporium secalis 24 hr after fungicide treatments. After inoculation the plants were kept in a dew room at 22° C. with 100% relative humidity for 48 hr. The plants were then transferred to a greenhouse set at 20° C. for disease to develop. Fungicide formulation, application and disease assessment on the sprayed leaves followed the procedures as described in the Example A.

[3] = system: Phakopsora pachyrhizi; test: Asian soybean rust (PHAKPA) disease control; set-up: key: A: > 80; B: ≤ 80; C: Not Tested; D: No Activity Observed in the Reported Assay; settings: 25 ppm; for PHAKPA disease control, 1DP: 1 Day Protectant; for PHAKPA disease control, 3DC: 3 Day Curative
[4] = system: Colletotrichum lagenarium; test: Cucumber anthracnose (COLLLA) disease control; settings: 100 ppm, 1 Day Protectant
Description: All fungicides were evaluated using the aforementioned method for their activity vs. all target diseases, unless stated otherwise. Wheat leaf blotch and brown rust activity were also evaluated using track spray applications, in which case the fungicides were formulated as EC formulations, containing 0.1% Trycol 5941 in the spray solutions. Wheat plants (variety Yuma) were grown from seed in a greenhouse in 50% mineral soil/50% soil-less Metro mix until the first leaf was fully emerged, with 7-10 seedlings per pot. These plants were inoculated with an aqueous spore suspension of Zymoseptoria tritici either prior to or after fungicide treatments. After inoculation the plants were kept in 100% relative humidity (one day in a dark dew chamber followed by two to three days in a lighted dew chamber at 20° C.) to permit spores to germinate and infect the leaf. The plants were then transferred to a greenhouse set at 20° C. for disease to develop. When disease symptoms were fully expressed on the 1st leaves of untreated plants, infection levels were assessed on a scale of 0 to 100 percent disease severity. Percent disease control was calculated using the ratio of disease severity on treated plants relative to untreated plants. Example K: Evaluation of Fungicidal Activity: Cucumber Anthracnose (Colletotrichum lagenarium; Bayer Code COLLLA) Cucumber seedlings (variety Bush Pickle) were propagated in soil-less Metro mix, with each pot having one plant, and used in the test when 12 to 14 days old. Test plants were inoculated with an aqueous spore suspension of Colletotrichum lagenarium 24 hr after fungicide treatments. After inoculation the plants were kept in a dew room at 22° C. with 100% relative humidity for 48 hr to permit spores to germinate and infect the leaf. The plants were then transferred to a growth room set at 22° C. for disease to develop. Fungicide formulation, application and disease assessment on the sprayed leaves followed the procedures as described in the Example A.

[5] = system: Pyricularia oryzae; settings: 100 ppm; 1 Day Protectant; rice

SMILES | CERCBE disease control, 1DP [1] | RHYNSE disease control, 1DP [2] | PHAKPA disease control, 1DP [3] | PHAKPA disease control, 3DC [3] | COLLLA disease control, 1DP [4] | PYRIOR disease control, 1DP [5]
CCCOC(CC)C(Oc1ccccc1)C(C)OC(=O)C(C)NC(=O)c1nccc(OC)c1OCOC(C)=O (centres unmarked) [Cmpd 446] | B (≤ 80) | B (≤ 80) | A (> 80) | B (≤ 80) | B (≤ 80) | –
COc1ccnc(C(=O)N[C@@H](C)C(=O)O[C@@H](C)[C@H](Oc2ccccc2)C(C)C)c1OCOC(C)=O [Cmpd 475] | A (> 80) | B (≤ 80) | A (> 80) | A (> 80) | A (> 80) | A (> 80)
CC[C@@H](CCOC)[C@@H](Oc1ccccc1)[C@H](C)OC(=O)[C@H](C)NC(=O)c1nccc(OC)c1OCOC(C)=O [Cmpd 476] | B (≤ 80) | B (≤ 80) | A (> 80) | B (≤ 80) | B (≤ 80) | A (> 80)
CCC(CC)[C@@H](Oc1ccccc1)[C@H](C)OC(=O)[C@H](C)NC(=O)c1nccc(OC)c1OCOC(C)=O [Cmpd 477] | A (> 80) | B (≤ 80) | A (> 80) | B (≤ 80) | A (> 80) | A (> 80)
COc1ccnc(C(=O)N[C@@H](C)C(=O)O[C@@H](C)[C@H](Oc2ccccc2)C(C)C)c1OC(C)=O [Cmpd 478] | B (≤ 80) | B (≤ 80) | A (> 80) | B (≤ 80) | B (≤ 80) | A (> 80)
CCC(CC)[C@@H](Oc1ccccc1)[C@H](C)OC(=O)[C@H](C)NC(=O)c1nccc(OC)c1OC(C)=O [Cmpd 479] | A (> 80) | B (≤ 80) | A (> 80) | B (≤ 80) | A (> 80) | A (> 80)
CC[C@@H](CCOC)[C@@H](Oc1ccccc1)[C@H](C)OC(=O)[C@H](C)NC(=O)c1nccc(OC)c1OC(C)=O [Cmpd 482] | A (> 80) | – | – | – | A (> 80) | A (> 80)
COc1ccnc(C(=O)N[C@@H](C)C(=O)O[C@@H](C)[C@H](Oc2ccccc2)c2ccccc2)c1OCOC(C)=O [Cmpd 500] | A (> 80) | A (> 80) | B (≤ 80) | B (≤ 80) | A (> 80) | A (> 80)
COc1ccnc(C(=O)N[C@@H](C)C(=O)O[C@H](C)[C@@H](Oc2ccccc2)c2ccccc2)c1OCOC(C)=O [Cmpd 547] | B (≤ 80) | – | B (≤ 80) | D | – | –
COc1ccnc(C(=O)N[C@H](C)C(=O)O[C@H](C)[C@@H](Oc2ccccc2)C(C)C)c1OCOC(C)=O [Cmpd 548] | B (≤ 80) | – | B (≤ 80) | D | – | –
